Key:
[1] = biological target: T1, Tyrosine-protein phosphatase non-receptor type 1 (Homo sapiens, UniProt P18031); experiment: Inhibition of recombinant human PTP1B catalytic domain expressed in Escherichia coli BL21-CodonPlus (DE3) using pNPP as substrate measured for 2 mins
T1 sequence (P18031 whole entry): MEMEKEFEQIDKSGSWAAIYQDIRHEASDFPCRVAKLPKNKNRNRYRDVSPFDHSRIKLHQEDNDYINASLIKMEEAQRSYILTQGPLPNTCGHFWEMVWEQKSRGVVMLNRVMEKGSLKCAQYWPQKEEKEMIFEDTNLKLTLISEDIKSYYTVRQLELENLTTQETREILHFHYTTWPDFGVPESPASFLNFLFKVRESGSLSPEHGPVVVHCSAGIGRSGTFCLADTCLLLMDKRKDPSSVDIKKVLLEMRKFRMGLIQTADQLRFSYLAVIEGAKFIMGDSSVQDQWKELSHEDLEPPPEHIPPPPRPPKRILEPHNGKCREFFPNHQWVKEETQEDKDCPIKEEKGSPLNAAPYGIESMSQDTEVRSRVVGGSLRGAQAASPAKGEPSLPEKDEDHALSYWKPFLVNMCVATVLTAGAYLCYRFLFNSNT

[2] = biological target: T2, Tyrosine-protein phosphatase non-receptor type 2 (Homo sapiens) (UniProt P17706); experiment: Inhibition of GST-tagged human […] expressed in Escherichia coli at 20 ug/ml using pNPP as substrate relative to control
T2 sequence (whole entry): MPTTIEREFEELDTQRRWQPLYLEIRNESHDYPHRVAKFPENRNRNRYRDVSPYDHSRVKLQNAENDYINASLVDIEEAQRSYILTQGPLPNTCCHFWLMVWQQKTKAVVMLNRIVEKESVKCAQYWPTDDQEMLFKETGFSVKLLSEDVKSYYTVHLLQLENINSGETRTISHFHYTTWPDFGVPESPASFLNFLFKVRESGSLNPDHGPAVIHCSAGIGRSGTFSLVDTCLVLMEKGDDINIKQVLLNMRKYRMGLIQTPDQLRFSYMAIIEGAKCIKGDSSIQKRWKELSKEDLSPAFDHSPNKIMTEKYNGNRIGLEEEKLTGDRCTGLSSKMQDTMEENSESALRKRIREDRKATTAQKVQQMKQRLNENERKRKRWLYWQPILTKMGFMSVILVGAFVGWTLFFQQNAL

[3] = biological target: Receptor-type tyrosine-protein phosphatase F (Homo sapiens) (UniProt P10586); experiment: Inhibition of GST-tagged human LAR expressed in Escherichia coli at 20 ug/ml using pNPP as substrate relative to control
Receptor-type tyrosine-protein phosphatase F (Homo sapiens), sequence (P10586 whole entry): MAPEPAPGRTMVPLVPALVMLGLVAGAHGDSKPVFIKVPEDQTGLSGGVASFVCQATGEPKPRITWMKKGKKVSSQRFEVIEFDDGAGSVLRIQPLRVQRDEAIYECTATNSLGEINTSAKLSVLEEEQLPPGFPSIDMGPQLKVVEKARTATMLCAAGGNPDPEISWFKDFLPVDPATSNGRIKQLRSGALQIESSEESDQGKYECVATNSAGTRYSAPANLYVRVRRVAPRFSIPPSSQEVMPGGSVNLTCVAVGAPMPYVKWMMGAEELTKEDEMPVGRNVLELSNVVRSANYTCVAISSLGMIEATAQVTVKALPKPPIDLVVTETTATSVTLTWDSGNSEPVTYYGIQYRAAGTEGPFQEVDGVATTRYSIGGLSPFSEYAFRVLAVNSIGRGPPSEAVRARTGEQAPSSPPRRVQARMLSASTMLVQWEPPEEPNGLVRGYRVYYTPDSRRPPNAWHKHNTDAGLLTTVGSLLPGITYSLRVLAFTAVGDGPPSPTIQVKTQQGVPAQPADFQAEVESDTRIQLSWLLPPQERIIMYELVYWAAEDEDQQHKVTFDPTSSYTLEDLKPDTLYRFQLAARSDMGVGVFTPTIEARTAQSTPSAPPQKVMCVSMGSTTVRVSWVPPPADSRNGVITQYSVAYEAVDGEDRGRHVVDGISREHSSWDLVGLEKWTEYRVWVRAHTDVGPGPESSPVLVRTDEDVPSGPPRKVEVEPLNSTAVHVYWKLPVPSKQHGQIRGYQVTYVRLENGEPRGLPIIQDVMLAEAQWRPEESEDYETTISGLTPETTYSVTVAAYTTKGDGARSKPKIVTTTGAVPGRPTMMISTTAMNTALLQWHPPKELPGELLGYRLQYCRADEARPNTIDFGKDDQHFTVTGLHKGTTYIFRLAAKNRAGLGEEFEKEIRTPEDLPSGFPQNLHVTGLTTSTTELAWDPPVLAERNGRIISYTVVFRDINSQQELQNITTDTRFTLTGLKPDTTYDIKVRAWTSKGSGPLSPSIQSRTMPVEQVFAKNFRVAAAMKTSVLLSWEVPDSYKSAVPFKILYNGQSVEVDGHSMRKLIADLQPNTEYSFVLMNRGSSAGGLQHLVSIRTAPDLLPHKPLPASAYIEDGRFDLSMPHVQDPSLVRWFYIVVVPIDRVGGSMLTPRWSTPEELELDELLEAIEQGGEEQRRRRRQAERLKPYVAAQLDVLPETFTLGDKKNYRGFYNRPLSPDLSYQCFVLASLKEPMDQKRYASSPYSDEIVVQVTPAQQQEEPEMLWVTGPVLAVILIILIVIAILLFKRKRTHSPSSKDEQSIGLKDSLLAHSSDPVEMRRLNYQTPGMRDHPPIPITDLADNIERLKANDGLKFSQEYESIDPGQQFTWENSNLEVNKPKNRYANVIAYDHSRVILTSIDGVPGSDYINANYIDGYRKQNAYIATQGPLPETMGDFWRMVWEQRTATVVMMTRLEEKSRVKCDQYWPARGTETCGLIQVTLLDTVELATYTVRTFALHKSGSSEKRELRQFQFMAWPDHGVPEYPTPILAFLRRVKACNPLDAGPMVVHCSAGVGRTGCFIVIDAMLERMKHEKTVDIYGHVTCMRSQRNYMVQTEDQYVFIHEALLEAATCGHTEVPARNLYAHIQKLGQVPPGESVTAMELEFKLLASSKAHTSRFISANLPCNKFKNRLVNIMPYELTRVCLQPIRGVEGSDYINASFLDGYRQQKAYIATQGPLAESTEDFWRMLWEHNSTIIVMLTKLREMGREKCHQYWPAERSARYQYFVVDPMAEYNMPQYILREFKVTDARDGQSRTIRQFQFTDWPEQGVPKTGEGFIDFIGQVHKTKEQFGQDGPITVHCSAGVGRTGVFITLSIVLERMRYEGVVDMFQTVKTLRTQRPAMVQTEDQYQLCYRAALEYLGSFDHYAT

[4] = biological target: T3, Tyrosine-protein phosphatase non-receptor type 6 (Homo sapiens, UniProt P29350); experiment: Inhibition of GST-tagged human SHP1 expressed in Escherichia coli at 20 ug/ml using pNPP as substrate relative to control
T3 sequence (P29350 whole entry): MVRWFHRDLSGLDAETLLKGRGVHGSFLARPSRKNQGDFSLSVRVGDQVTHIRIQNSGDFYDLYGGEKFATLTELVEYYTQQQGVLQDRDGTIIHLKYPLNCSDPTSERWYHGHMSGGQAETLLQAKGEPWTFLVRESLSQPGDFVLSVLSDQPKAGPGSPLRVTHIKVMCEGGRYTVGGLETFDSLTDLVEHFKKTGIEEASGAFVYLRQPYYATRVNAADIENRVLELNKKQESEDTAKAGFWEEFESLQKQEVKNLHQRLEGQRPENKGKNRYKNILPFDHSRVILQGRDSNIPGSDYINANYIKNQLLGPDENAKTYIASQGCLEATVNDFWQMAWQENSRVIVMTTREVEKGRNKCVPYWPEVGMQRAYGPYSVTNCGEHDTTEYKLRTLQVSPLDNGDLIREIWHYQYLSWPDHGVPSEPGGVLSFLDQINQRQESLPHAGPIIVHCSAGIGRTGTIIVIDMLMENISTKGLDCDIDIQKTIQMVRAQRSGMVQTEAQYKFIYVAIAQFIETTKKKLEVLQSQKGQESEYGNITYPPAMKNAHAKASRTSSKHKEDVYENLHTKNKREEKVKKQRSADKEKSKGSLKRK

[5] = biological target: T3, Tyrosine-protein phosphatase non-receptor type 6; experiment: Inhibition of GST-tagged human SHP1 expressed in Escherichia coli using pNPP as substrate
[6] = biological target: T4, Tyrosine-protein phosphatase non-receptor type 2 (Homo sapiens, UniProt P17706); experiment: Inhibition of GST-tagged human […] expressed in Escherichia coli using pNPP as substrate
T4 sequence (P17706 whole entry): T2 sequence (whole entry)

Compound	IC50 [1]	also measured
COc1ccc2c(c1)[C@@H]1O[C@@]3(C(=O)N(Cc4ccccc4)c4ccccc43)[C@@H](c3ccc(C)cc3)[C@@]13NC(=O)C[C@H]3O2	7.98 µM	–
COC(=O)/C=C/Oc1ccc(OC)cc1[C@@H]1O[C@@]2(C(=O)N(Cc3ccccc3)c3ccccc32)[C@@H](c2ccc(C)cc2)[C@@H]1[N+](=O)[O-]	13.2 µM	–
COC(=O)C[C@H]1Oc2c(OC)cccc2[C@@H]2O[C@@]3(C(=O)N(Cc4ccccc4)c4ccccc43)[C@@H](c3ccc(C)cc3)[C@]12[N+](=O)[O-]	8.2 µM	–
COC(=O)C[C@H]1Oc2c(OC)cccc2[C@@H]2O[C@@]3(C(=O)N(Cc4ccccc4)c4ccccc43)[C@@H](c3ccc(Br)cc3)[C@]12[N+](=O)[O-]	5.43 µM	–
COc1cccc2c1O[C@@H]1CC(=O)N[C@]13[C@H]2O[C@@]1(C(=O)N(Cc2ccccc2)c2ccccc21)[C@H]3c1ccc(Br)cc1	6.19 µM	–
COC(=O)/C=C/Oc1ccc(OC)cc1[C@@H]1O[C@@]2(C(=O)N(Cc3ccccc3)c3ccccc32)[C@@H](c2ccc(Br)cc2)[C@@H]1[N+](=O)[O-]	5.34 µM	–
COC(=O)C[C@H]1Oc2ccc(OC)cc2[C@@H]2O[C@@]3(C(=O)N(Cc4ccccc4)c4ccccc43)[C@@H](c3ccc(C)cc3)[C@]12[N+](=O)[O-]	4.53 µM	inhibition [2]: 10.3%; inhibition [3]: 15.5%; inhibition [4]: 31.1%
O=C1C[C@H]2Oc3ccc(Cl)cc3[C@@H]3O[C@@]4(C(=O)N(Cc5ccccc5)c5ccccc54)[C@@H](c4ccc(Br)cc4)[C@]23N1	6.04 µM	–
COC(=O)/C=C/Oc1c(OC)cccc1[C@@H]1O[C@@]2(C(=O)N(Cc3ccccc3)c3ccccc32)[C@@H](c2ccc(Br)cc2)[C@@H]1[N+](=O)[O-]	3.89 µM	inhibition [2]: 38.3%; inhibition [3]: 18.7%; IC50 [5]: 5.29 µM; inhibition [4]: 98.8%
Cc1ccc([C@H]2[C@]34NC(=O)C[C@H]3Oc3ccc(Cl)cc3[C@@H]4O[C@@]23C(=O)N(Cc2ccccc2)c2ccccc23)cc1	5.61 µM	–
COc1ccccc1[C@H]1[C@]23NC(=O)C[C@H]2Oc2c(OC)cccc2[C@@H]3O[C@@]12C(=O)N(Cc1ccccc1)c1ccccc12	10 µM	–
COC(=O)C[C@H]1Oc2ccc(Cl)cc2[C@@H]2O[C@@]3(C(=O)N(Cc4ccccc4)c4ccccc43)[C@@H](c3ccc(Br)cc3)[C@]12[N+](=O)[O-]	4.65 µM	–
COc1ccc2c(c1)[C@@H]1O[C@@]3(C(=O)N(Cc4ccccc4)c4ccccc43)[C@@H](c3ccc(Br)cc3)[C@@]13NC(=O)C[C@H]3O2	6.48 µM	–
COC(=O)C[C@H]1Oc2c(OC)cccc2[C@@H]2O[C@@]3(C(=O)N(Cc4ccccc4)c4ccccc43)[C@@H](c3ccccc3OC)[C@]12[N+](=O)[O-]	5.83 µM	–
COC(=O)C[C@H]1Oc2ccc(OC)cc2[C@@H]2O[C@@]3(C(=O)N(Cc4ccccc4)c4ccccc43)[C@@H](c3ccc(Br)cc3)[C@]12[N+](=O)[O-]	6.67 µM	–
Cc1ccc2c(c1)[C@@H]1O[C@@]3(C(=O)N(Cc4ccccc4)c4ccccc43)[C@@H](c3ccccc3)[C@@]13NC(=O)C[C@H]3O2	10.3 µM	–
COc1cccc2c1O[C@@H]1CC(=O)N[C@]13[C@H]2O[C@@]1(C(=O)N(Cc2ccccc2)c2ccccc21)[C@H]3c1ccc(C)cc1	7.07 µM	–
COC(=O)/C=C/Oc1c(OC)cccc1[C@@H]1O[C@@]2(C(=O)N(Cc3ccccc3)c3ccccc32)[C@@H](c2ccc(C)cc2)[C@@H]1[N+](=O)[O-]	6.8 µM	–
Cc1ccc([C@H]2[C@]34NC(=O)C[C@H]3Oc3ccc(C)cc3[C@@H]4O[C@@]23C(=O)N(Cc2ccccc2)c2ccccc23)cc1	4.72 µM	inhibition [2]: 19.4%; inhibition [3]: 6.72%; IC50 [5]: 10.6 µM; IC50 [6]: 35.8 µM; inhibition [4]: 96.1%
